Source: ChEMBL document CHEMBL5550154, “Novel biaryloxazolidinone derivatives with broad-spectrum antibacterial activity, favorable drug-like profiles and in vivo efficacy against linezolid-resistant Staphylococcusaureus” (Eur J Med Chem, 2024)
pIC50: −log10 of the molar value. Converted amounts (≈) assume the structure as drawn.

How the values were obtained:
[1] = Microsomal stability in rat liver microsomes assessed as elimination half life pretreated with compound upto 60 mins followed by NADPH addition and measured after 60 mins by LC/MS analysis; format: ADME, Microsome; details: liver microsomes, read-out: beta t1/2
Staphylococcus aureus [2] = assay: Antibacterial activity against Staphylococcus aureus ATCC29213 assessed as inhibition of bacterial growth incubated for 16 to 20 hrs by CLSI based broth liquid microdilution method; format: functional; details: time 16-20 hrs
[3] = Microsomal stability in monkey liver microsomes assessed as parent compound remaining pretreated with compound upto 60 mins followed by NADPH addition and measured after 60 mins by LC/MS analysis; format: ADME, Macaca mulatta, Microsome; details: rhesus monkey, time < 120 min, read-out: Stability
[4] = Aqueous solubility of compound at pH 2 by LC-MS/MS analysis; format: physicochemical; details: buffer
[5] = Microsomal stability in mouse liver microsomes assessed as elimination half life pretreated with compound upto 60 mins followed by NADPH addition and measured after 60 mins by LC/MS analysis; format: ADME, Microsome; details: liver microsomes, time < 120 min, read-out: beta t1/2
[6] = Volume of distribution at steady state in ICR mouse at 1 mg/kg, iv measured upto 24 hrs by LC-MS analysis; format: ADME, organism-based; details: in vivo, read-out: Vdss
[7] = Microsomal stability in human liver microsomes assessed as elimination half life pretreated with compound upto 60 mins followed by NADPH addition and measured after 60 mins by LC/MS analysis; format: ADME, Microsome; details: liver microsomes, time < 120 min, read-out: beta t1/2
Staphylococcus aureus [8] = assay: Antibacterial activity against methicillin-resistant Staphylococcus aureus assessed as inhibition of bacterial growth incubated for 16 to 20 hrs by CLSI based broth liquid microdilution method; format: functional; details: time 16-20 hrs
[9] = Plasma protein binding in mouse incubated for 6 hrs by LC-MS/MS analysis; format: ADME, cell-free; details: read-out: PPB (converted)
[10] = Tmax in ICR mouse at 10 mg/kg, IG measured upto 24 hrs by LC-MS analysis; format: ADME, organism-based; details: in vivo, po
[11] = AUC (0 to t) in ICR mouse at 10 mg/kg, IG measured upto 24 hrs by LC-MS analysis; format: ADME, organism-based; details: in vivo, po
[12] = Stability in dog plasma assessed as parent compound remaining at 37 degreeC measured upto 60 mins by HPLC analysis; format: ADME, cell-free, Canis lupus familiaris; details: read-out: Stability
[13] = Microsomal stability in dog liver microsomes assessed as intrinsic clearance pretreated with compound upto 60 mins followed by NADPH addition and measured after 60 mins by LC/MS analysis; format: ADME, Canis lupus familiaris, Microsome; details: liver microsomes, time < 120 min, read-out: CLH
[14] = AUC (0 to t) in Sprague-Dawley rat at 1 mg/kg, iv measured upto 24 hrs by LC-MS analysis; format: ADME, organism-based; details: in vivo
[15] = Elimination half life in Sprague-Dawley rat at 1 mg/kg, iv measured upto 24 hrs by LC-MS analysis; format: ADME, organism-based; details: in vivo, read-out: beta t1/2 (converted)
[16] = Microsomal stability in human liver microsomes assessed as intrinsic clearance pretreated with compound upto 60 mins followed by NADPH addition and measured after 60 mins by LC/MS analysis; format: ADME, Microsome; details: time < 120 min, read-out: CLH
Staphylococcus aureus [17] = assay: Antibacterial activity against methicillin-sensitive Staphylococcus aureus assessed as inhibition of bacterial growth incubated for 16 to 20 hrs by CLSI based broth liquid microdilution method; format: functional; details: time 16-20 hrs
[18] = Microsomal stability in mouse liver microsomes assessed as parent compound remaining pretreated with compound upto 60 mins followed by NADPH addition and measured after 60 mins by LC/MS analysis; format: ADME, Microsome; details: liver microsomes, time < 120 min, read-out: Stability
[19] = Microsomal stability in monkey liver microsomes assessed as intrinsic clearance pretreated with compound upto 60 mins followed by NADPH addition and measured after 60 mins by LC/MS analysis; format: ADME, Macaca mulatta, Microsome; details: rhesus monkey, time < 120 min, read-out: CLH
Cytochrome P450 1A2 = target: T1, Cytochrome P450 1A2 (Homo sapiens, UniProt P05177); assay: Inhibition of CYP1A2 in human liver microsomes with alpha-naphthoflavone as reference inhibitor preincubated with compound for 5 mins followed by substrate addition and measured after 120 mins in presence of NADPH by LC-MS/MS analysis; format: ADME, Microsome
T1 sequence (P05177 whole entry): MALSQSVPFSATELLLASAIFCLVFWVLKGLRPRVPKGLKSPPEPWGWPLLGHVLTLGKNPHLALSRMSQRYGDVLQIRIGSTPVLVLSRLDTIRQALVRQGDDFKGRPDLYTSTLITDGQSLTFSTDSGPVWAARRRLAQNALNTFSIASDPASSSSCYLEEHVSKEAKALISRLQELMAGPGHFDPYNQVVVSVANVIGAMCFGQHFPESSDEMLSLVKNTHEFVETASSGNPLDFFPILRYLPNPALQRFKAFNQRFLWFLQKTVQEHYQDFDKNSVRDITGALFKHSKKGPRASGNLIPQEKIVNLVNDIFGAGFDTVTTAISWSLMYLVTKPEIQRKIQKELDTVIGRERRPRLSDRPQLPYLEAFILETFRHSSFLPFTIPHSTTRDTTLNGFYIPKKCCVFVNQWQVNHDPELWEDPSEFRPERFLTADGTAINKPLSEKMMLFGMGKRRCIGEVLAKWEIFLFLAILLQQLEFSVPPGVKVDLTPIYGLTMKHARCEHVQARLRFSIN

[20] = AUC (0 to t) in ICR mouse at 1 mg/kg, iv measured upto 24 hrs by LC-MS analysis; format: ADME, organism-based; details: in vivo
[21] = Half life in ICR mouse at 10 mg/kg, IG measured upto 24 hrs by LC-MS analysis; format: ADME, organism-based; details: in vivo, po
[22] = Bioavailability in Sprague-Dawley rat at 10 mg/kg, IG measured upto 24 hrs by LC-MS analysis; format: ADME, organism-based; details: in vivo, po
[23] = Microsomal stability in rat liver microsomes assessed as intrinsic clearance pretreated with compound upto 60 mins followed by NADPH addition and measured after 60 mins by LC/MS analysis; format: ADME, Microsome; details: time < 120 min, read-out: CLH
[24] = AUC (0 to t) in Sprague-Dawley rat at 10 mg/kg, IG measured upto 24 hrs by LC-MS analysis; format: ADME, organism-based; details: in vivo, po
Enterococcus faecalis = assay: Antibacterial activity against linezolid-resistant Enterococcus faecalis assessed as inhibition of bacterial growth incubated for 16 to 20 hrs by CLSI based broth liquid microdilution method; format: functional; details: time 16-20 hrs
[25] = Cytotoxicity against human HepG2 cells incubated for 48 hrs by MTT assay; format: toxicity, cell-based
[26] = Microsomal stability in dog liver microsomes assessed as elimination half life pretreated with compound upto 60 mins followed by NADPH addition and measured after 60 mins by LC/MS analysis; format: ADME, Canis lupus familiaris, Microsome; details: liver microsomes, time < 120 min, read-out: beta t1/2
[27] = Microsomal stability in rat liver microsomes assessed as parent compound remaining pretreated with compound upto 60 mins followed by NADPH addition and measured after 60 mins by LC/MS analysis; format: ADME, Microsome; details: liver microsomes, time < 120 min, read-out: Stability
[28] = Cmax in ICR mouse at 10 mg/kg, IG measured upto 24 hrs by LC-MS analysis; format: ADME, organism-based; details: in vivo, po
[29] = Plasma protein binding in rat incubated for 6 hrs by LC-MS/MS analysis; format: ADME, cell-free; details: read-out: PPB (converted)
[30] = Elimination half life in Sprague-Dawley rat at 10 mg/kg, IG measured upto 24 hrs by LC-MS analysis; format: ADME, organism-based; details: in vivo, po, read-out: beta t1/2 (converted)
[31] = Stability in mouse plasma assessed as parent compound remaining at 37 degreeC measured upto 60 mins by HPLC analysis; format: ADME, cell-free; details: read-out: Stability
[32] = Clearance in ICR mouse at 1 mg/kg, iv measured upto 24 hrs by LC-MS analysis; format: ADME, organism-based; details: in vivo

Row | Compound | half-life [1] [h] | remaining at 2 h [3] [%] | half-life [5] [h] | Vd [6] [L/kg] | fraction unbound at 6 h [9] | Tmax [10] [h] | AUC(0-t) at 24 h [11] [ng·h/mL] | remaining at 1 h [12] [%] | microsomal CLint [13] [µL/min/mg] | AUC(0-t) at 24 h [14] [ng·h/mL] | half-life [15] [h] | remaining at 2 h [18] [%] | microsomal CLint [19] [µL/min/mg] | pIC50 (Cytochrome P450 1A2) | AUC(0-t) at 24 h [20] [ng·h/mL] | half-life [21] [h] | microsomal CLint [23] [µL/min/mg] | AUC(0-t) at 24 h [24] [ng·h/mL] | IC50 at 48 h [25] [µM] | half-life [26] [h] | further results
1 | O=C1O[C@@H](CO)CN1c1ccc(-c2ccc(/C=N/N3CCOCC3)nc2)c(F)c1 | 10.2 | 93.3 | 12.2 | 0.87 | 0.117 | 2 | 29300 | 115 | 1.51 | 1220 | 0.8 | 96 | 3.25 | < 4.52 | 2640 | 2.85 | 2.3 | 8310 | > 30 | 19.2 | MIC (Staphylococcus aureus [2]): 0.06 µg/mL (≈ 0.15 µM); solubility [4]: 52.6 µM (≈ 21.1 µg/mL); half-life [7]: 1.83 h; MIC (Staphylococcus aureus [8]): 0.125 µg/mL (≈ 0.312 µM); microsomal CLint [16]: 12.7 µL/min/mg; MIC (Staphylococcus aureus [17]): 0.06 µg/mL (≈ 0.15 µM); bioavailability [22]: 68.1%; MIC (Enterococcus faecalis): 0.5 µg/mL (≈ 1.25 µM); remaining at 2 h [27]: 93.4%; Cmax [28]: 4810 ng/mL; fraction unbound at 6 h [29]: 0.041; half-life [30]: 1.49 h; remaining at 1 h [31]: 98.3%; clearance [32]: 5.9 mL/min/kg
2 | CC(=O)NC[C@H]1CN(c2ccc(N3CCOCC3)c(F)c2)C(=O)O1 [LINEZOLID] | 10.4 | 99.4 | 10.6 | 0.56 | 0.721 | 0.25 | 24000 | 110 | 0.667 | 719 | 0.41 | 92.3 | 0.446 | < 4.52 | 794 | 0.8 | 2.22 | 13000 | > 30 | 34.6 | remaining at 2 h [27]: 93.9%; Cmax [28]: 10000 ng/mL; fraction unbound at 6 h [29]: 0.639; half-life [30]: 1.08 h; remaining at 1 h [31]: 105%; clearance [32]: 20.6 mL/min/kg
